Measured values from patent publication US5648336A (University of Colorado, priority 1994, dated 1997).
Read-outs that look alike come from different tables or passages of the source. Square brackets hold non-standard residues; d marks the D form. Ends that are not written are not given here. Peptide text beside a SMILES is read from it. * marks the point of attachment. X1 = N=C(N)NCCC[C@@H](NC(=NC1CCCCC1)NC1CCCCC1)C(=O)*; Oic = O=C(O)[C@@H]1C[C@@H]2CCCC[C@@H]2N1; dIgl = N[C@@H](C(=O)O)C1Cc2ccccc2C1; Igl = N[C@H](C(=O)O)C1Cc2ccccc2C1; Hyp = O=C(O)[C@@H]1C[C@@H](O)CN1; 2Thi = N[C@@H](Cc1cccs1)C(=O)O

Assays:
guinea pig ileum = test system: guinea pig ileum
Description: (§1) A change of one unit of pA2 value represents an order of magnitude change in potency.
(§2) On isolated smooth muscles, agonist potency is given as percent of BK potency; antagonist potency is given as pA2, and is underlined. In blood pressure assays, the number is the dose of peptide in micrograms that causes 50% reduction in the effect of BK intraarterially administered as a bolus mixture in a 500 g male rat; Ag indicates unquantitated agonist activity; Ant indicates unquantitated antagonist activity.

isolated rat uterus = test system: isolated rat uterus
Description: as §1, §2

B1 receptors = target: T1, B1 receptors (Oryctolagus cuniculus, UniProt P48748); experiment: B1 receptor bioassay, rabbit aorta strips contracted with des-Arg9-BK; type: cell-based; conditions: 50% reduction of sustained contraction to 10^-7 M des-Arg9-BK; read-out: Rabbit Aorta p IC50 B1 receptors (converted)
T1 construct: The thorax was opened and the thoracic aorta carefully removed; from tissue; host or cells: rabbit thoracic aorta spiral strips
T1 sequence (P48748 1-352): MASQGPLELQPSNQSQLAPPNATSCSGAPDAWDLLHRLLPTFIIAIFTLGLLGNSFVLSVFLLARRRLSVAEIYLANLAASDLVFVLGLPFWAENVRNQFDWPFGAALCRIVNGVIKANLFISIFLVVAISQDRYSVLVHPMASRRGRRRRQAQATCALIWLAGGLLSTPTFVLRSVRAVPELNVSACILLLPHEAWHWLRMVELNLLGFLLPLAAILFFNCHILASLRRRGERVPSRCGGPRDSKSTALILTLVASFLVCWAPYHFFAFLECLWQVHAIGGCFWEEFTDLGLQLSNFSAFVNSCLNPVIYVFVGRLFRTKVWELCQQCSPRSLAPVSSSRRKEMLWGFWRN
Procedure: Male New Zealand white rabbits, weight range 2-3 kg, were killed by an overdose of pentobarbital i.v. The thorax was opened and the thoracic aorta carefully removed. […] The tissues were placed under 1 gm isometric tension and allowed to equilibrate for 1H. At time 1h, a concentration-effect curve was constructed to the selective B1 agonist des-Arg^9 -BK. This was repeated at time 3 hours. […] Once the contraction was sustained, the compound to be assayed was applied to the tissue bath in a cumulative manner. The concentration of the compound which produced a 50% reduction of the sustained contraction was calculated. The negative logarithm of this concentration was calculated and expressed as the […].

[1] = guinea pig ileum, vs double ED50 dose of bradykinin

| Compound | Ileum Activity, antagonist potency given as pA2 (guinea pig ileum) | Uterus Activity, antagonist potency given as pA2 (isolated rat uterus) | other results |
| --- | --- | --- | --- |
| N=C(N)NCCC[C@@H](N)C(=O)N[C@@H](CCCNC(=N)N)C(=O)N1CCC[C@H]1C(=O)N1C[C@H](O)C[C@H]1C(=O)NCC(=O)N[C@@H](Cc1ccccc1)C(=O)N[C@@H](CO)C(=O)N[C@H](C(=O)N1[C@H](C(=O)N[C@@H](CCCNC(=N)N)C(=O)O)C[C@@H]2CCCC[C@@H]21)C1Cc2ccccc2C1 [Compound 14, DArg-Arg-Pro-Hyp-Gly-Phe-Ser-Iglb-Oic-Arg] (H-[dR]RP[Hyp]GFS[Igl][Oic]R-OH) | 5.1 | 6.5 | – |
| Cc1ccc(C[C@H](NC(=O)CNC(=O)[C@@H]2C[C@@H](O)CN2C(=O)[C@@H]2CCCN2C(=O)[C@H](CCCNC(=N)N)NC(=O)[C@H](N)CCCNC(=N)N)C(=O)N[C@@H](CO)C(=O)N[C@@H](C(=O)N2[C@H](C(=O)N[C@@H](CCCNC(=N)N)C(=O)O)C[C@@H]3CCCC[C@@H]32)C2Cc3ccccc3C2)c(C)c1 [Compound 26, DArg-Arg-Pro-Hyp-Gly-DMF-Ser-DIglb-Oic-Arg] | 6.6 | 7.3 | – |
| N=C(N)NCCC[C@@H](N)C(=O)N[C@@H](CCCNC(=N)N)C(=O)N1CCC[C@H]1C(=O)N1C[C@H](O)C[C@H]1C(=O)NCC(=O)N[C@H](C(=O)N[C@@H](CO)C(=O)N1Cc2ccccc2C[C@@H]1C(=O)N(CC(=O)N[C@@H](CCCNC(=N)N)C(=O)O)C1Cc2ccccc2C1)C1CCCC1 [Compound 29, DArg-Arg-Pro-Hyp-Gly-Cpg-Ser-DTic-Nigb-Arg] | 7.6 | 8.1 | – |
| N=C(N)NCCC[C@H](NC(=O)[C@@H]1C[C@@H]2CCCC[C@@H]2N1C(=O)[C@@H](NC(=O)[C@H](CO)NC(=O)[C@H](Cc1cccs1)NC(=O)CNC(=O)[C@@H]1C[C@@H](O)CN1C(=O)[C@@H]1CCCN1C(=O)[C@H](CCCNC(=N)N)NC(=O)[C@@H](CCCNC(=N)N)NC(=O)C12CC3CC(CC(C3)C1)C2)C1Cc2ccccc2C1)C(=O)O [Compound 54, Aca-DArg-Arg-Pro-Hyp-Gly-Thi-Ser-Iglb-Oic-Arg] | – | 5.8 | – |
| N=C(N)NCCC[C@@H](N)C(=O)N[C@@H](CCCNC(=N)N)C(=O)N1CCC[C@H]1C(=O)N1C[C@H](O)C[C@H]1C(=O)NCC(=O)N[C@H](C(=O)N[C@@H](CO)C(=O)N1Cc2ccccc2C[C@@H]1C(=O)N[C@H](C(=O)N[C@@H](CCCNC(=N)N)C(=O)O)C1Cc2ccccc2C1)C1CCCC1 [Compound 12, DArg-Arg-Pro-Hyp-Gly-Cpg-Ser-DTic-Iglb-Arg] | 5.1 | – | Uterus Activity, agonist potency given as percent of BK potency (isolated rat uterus): 10.5% |
| RPPGFSPFR [bradykinin, Arg^1 -Pro^2 -Pro^3 -Gly^4 -Phe^5 -Ser^6 -Pro^7 -Phe^8 -Arg^9, reference compound] | – | – | pD2 value (negative logarithm of the dose causing half-maximal contraction) (guinea pig ileum; guinea pig ileum): 7.4; pD2 value (negative logarithm of the dose causing half-maximal contraction) (isolated rat uterus; rat uterus): 7.9 |
| N=C(N)NCCC[C@H](NC(=O)[C@@H]1C[C@@H]2CCCC[C@@H]2N1C(=O)[C@H](NC(=O)[C@H](CO)NC(=O)[C@H](Cc1cccs1)NC(=O)CNC(=O)[C@@H]1C[C@@H](O)CN1C(=O)[C@@H]1CCCN1C(=O)[C@H](CCCNC(=N)N)NC(=O)[C@@H](CCCNC(=N)N)NC(=O)C12CC3CC(CC(C3)C1)C2)C1Cc2ccccc2C1)C(=O)O [Compound 55, Aca-DArg-Arg-Pro-Hyp-Gly-Thi-Ser-DIglb-Oic-Arg] | 8.4 | 9.2 | IC50 (B1 receptors): 269 nM |
| DArg-Arg-Pro-Hyp-Gly-Thi-Ser-Higb-Oic-Arg [Compound 125] | – | – | Ileum Activity, antagonist potency given as pA2 (guinea pig ileum; [1]): 6.6; Uterus Activity, agonist potency given as percent of BK potency (isolated rat uterus; isolated rat uterus): 9.4% |
| N=C(N)NCCC[C@@H](N)C(=O)N[C@@H](CCCNC(=N)N)C(=O)N1CCC[C@H]1C(=O)N1C[C@H](O)C[C@H]1C(=O)NCC(=O)N[C@@H](Cc1ccccc1)C(=O)N[C@@H](CO)C(=O)N[C@@H](C(=O)N1[C@H](C(=O)N[C@@H](CCCNC(=N)N)C(=O)O)C[C@@H]2CCCC[C@@H]21)C1Cc2ccccc2C1 [Compound 15, DArg-Arg-Pro-Hyp-Gly-Phe-Ser-DIglb-Oic-Arg] (H-[dR]RP[Hyp]GFS[dIgl][Oic]R-OH) | 7.6 | 7.9 | IC50 (B1 receptors): 162 nM |
| N=C(N)NCCC[C@@H](N)C(=O)N[C@@H](CCCNC(=N)N)C(=O)N1CCC[C@H]1C(=O)N1C[C@H](O)C[C@H]1C(=O)NCC(=O)N[C@H](C(=O)N[C@@H](CO)C(=O)N1Cc2ccccc2C[C@@H]1C(=O)N[C@@H](C(=O)N[C@@H](CCCNC(=N)N)C(=O)O)C1Cc2ccccc2C1)C1CCCC1 [Compound 13, DArg-Arg-Pro-Hyp-Gly-Cpg-Ser-DTic-DIglb-Arg] | 6.0 | – | Uterus Activity, agonist potency given as percent of BK potency (isolated rat uterus): 8.6% |
| N=C(N)NCCC[C@H](NC(=O)[C@@H]1C[C@@H]2CCCC[C@@H]2N1C(=O)[C@H](NC(=O)[C@H](CO)NC(=O)[C@H](Cc1cccs1)NC(=O)CNC(=O)[C@@H]1C[C@@H](O)CN1C(=O)[C@@H]1CCCN1C(=O)[C@H](CCCNC(=N)N)NC(=O)[C@@H](CCCNC(=N)N)NC(=NC1CCCCC1)NC1CCCCC1)C1Cc2ccccc2C1)C(=O)O [Compound 58, Dcg-DArg-Arg-Pro-Hyp-Gly-Thi-Ser-DIglb-Oic-Arg] (X1-RP[Hyp]G[2Thi]S[dIgl][Oic]R-OH) | 5.4 | – | Uterus Activity, agonist potency given as percent of BK potency (isolated rat uterus): 3.0% |
| N=C(N)NCCC[C@@H](N)C(=O)N[C@@H](CCCNC(=N)N)C(=O)N1CCC[C@H]1C(=O)N1C[C@H](O)C[C@H]1C(=O)NCC(=O)N[C@@H](Cc1cccs1)C(=O)N[C@@H](CO)C(=O)N[C@@H](C(=O)N[C@@H](C(=O)N[C@@H](CCCNC(=N)N)C(=O)O)C1Cc2ccccc2C1)C1CCCC1 [Compound 9, DArg-Arg-Pro-Hyp-Gly-Thi-Ser-DCpg-DIglb-Arg] | 7.2 | 7.4 | – |
| N=C(N)NCCC[C@H](NC(=O)[C@@H]1C[C@@H]2CCCC[C@@H]2N1C(=O)[C@H](NC(=O)[C@H](CO)NC(=O)[C@H](Cc1cccs1)NC(=O)CNC(=O)[C@@H]1C[C@@H](O)CN1C(=O)[C@@H]1CCCN1C(=O)[C@H](CCCNC(=N)N)NC(=O)[C@@H](CCCNC(=N)N)NC(=O)C1=CN2CCC1CC2)C1Cc2ccccc2C1)C(=O)O [Compound 59, Dhq-DArg-Arg-Pro-Hyp-Gly-Thi-Ser-DIglb-Oic-Arg] | 7.2 | 8.1 | – |
| N=C(N)NCCC[C@@H](N)C(=O)N[C@@H](CCCNC(=N)N)C(=O)N1CCC[C@H]1C(=O)N1C[C@H](O)C[C@H]1C(=O)NCC(=O)N[C@H](C(=O)N[C@@H](CO)C(=O)N[C@@H](C(=O)N1[C@H](C(=O)N[C@@H](CCCNC(=N)N)C(=O)O)C[C@@H]2CCCC[C@@H]21)C1Cc2ccccc2C1)C1CCCC1 [Compound 24, DArg-Arg-Pro-Hyp-Gly-Cpg-Ser-DIglb-Oic-Arg] | 8.1 | – | IC50 (B1 receptors): 427 nM |
| DArg-Arg-Pro-Hyp-Gly-Thi-Ser-DIgl-Iglb-Arg [Compound 19] | – | – | Ileum Activity, antagonist potency given as pA2 (guinea pig ileum; [1]): 6.7; Uterus Activity, agonist potency given as percent of BK potency (isolated rat uterus; isolated rat uterus): 9.1% |
| N=C(N)NCCC[C@@H](N)C(=O)N[C@@H](CCCNC(=N)N)C(=O)N1CCC[C@H]1C(=O)N1C[C@H](O)C[C@H]1C(=O)NCC(=O)N[C@@H](C(=O)N[C@@H](CO)C(=O)N[C@@H](C(=O)N1[C@H](C(=O)N[C@@H](CCCNC(=N)N)C(=O)O)C[C@@H]2CCCC[C@@H]21)C1Cc2ccccc2C1)C1Cc2ccccc2C1 [Compound 30, DArg-Arg-Pro-Hyp-Gly-DIglb-Ser-DIglb-Oic-Arg] | – | – | IC50 (B1 receptors): > 10000 nM |
| N=C(N)NCCC[C@@H](N)C(=O)N[C@@H](CCCNC(=N)N)C(=O)N1CCC[C@H]1C(=O)N1C[C@H](O)C[C@H]1C(=O)NCC(=O)N[C@H](C(=O)N[C@@H](CO)C(=O)N[C@@H](C(=O)N[C@@H](C(=O)N[C@@H](CCCNC(=N)N)C(=O)O)C1Cc2ccccc2C1)C1CCCC1)C1CCCC1 [Compound 11, DArg-Arg-Pro-Hyp-Gly-Cpg-Ser-DCpg-DIglb-Arg] | – | – | IC50 (B1 receptors): 398 nM |
